Calls of active or inactive are those of the source.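 The calls were made as follows: active = compounds giving half or more protection of infected cells from virus-caused growth loss, again on retest; inactive = the rest.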 Where a SMILES comes first, the peptide text is derived from it. [ ]: non-standard residue; d: D form. The star is where a group is joined. Nle = CCCC[CH](N)C(=O)O; Cbz = O=C(OCc1ccccc1)*; OBn = c1ccc(CO*)cc1
System: CEM cells HIV-1 protection, formazan growth assay
Assay: NCI AIDS Antiviral Assay
Settings: for IC50: measured here: growth of uninfected CEM cells
In short: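 Category rules: moderately active means at least 50% protection on retest, and confirmed active means 100% protection reproducibly. The underlying data came from a formazan growth assay in HIV-1-infected CEM cells.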

Row | SMILES | EC50 | IC50 | outcome
1 | O=C(COc1ccc2c(=O)cc(-c3ccc(Cl)cc3)oc2c1)N1CCN(c2ccccc2)CC1 | 0.813 µM | 20.9 µM | 
2 | Cn1ccnc1.Cn1ccnc1.NCCN.[Cl-].[Pt+4] | > 200 µM | > 200 µM | 
3 | CC12OOC(c3ccccc31)c1c2ccc2ccccc12 (configuration not stated) |  |  | inactive
4 | O=C(CN1CCNCCN(CC(=O)N2CCCCC2)CCNCC1)N1CCCCC1 | > 200 µM | 10.5 µM | 
5 | CCOC(=O)c1c(C)n(C)c2c1nnc1ccccc12 | > 200 µM | 129 µM | 
6 | CC(C)(C)[Si](C)(C)OC1CCOC1(O)c1ccccn1 (configuration not stated) | > 200 µM | 66.1 µM | 
7 | Nc1c(N=Nc2ccc(/C=C/c3ccc(N=Nc4cc(S(=O)(=O)O)c5ccccc5c4N)cc3S(=O)(=O)O)c(S(=O)(=O)O)c2)cc(S(=O)(=O)O)c2ccccc12 | 8.71 µM | 77.6 µM | 
8 | N#CC(C(=O)CCC(=O)Nc1ccc(Cl)c(Cl)c1)c1ccc(Cl)cc1 (configuration not stated) | > 331 µM | > 331 µM | 
9 | Fc1sc2c(c1F)C1CCC2C1 (configuration not stated) | > 200 µM | 115 µM | 
10 | CCSc1cc(C(=O)OC)c2n(c1=O)CCCC2 | > 200 µM | > 200 µM | 
11 | O=C1Oc2ccccc2[C@@H]2[C@H]1[C@@H]1C(=O)Oc3ccccc3[C@@H]12 | > 46.8 µM | > 46.8 µM | 
12 | C1COC2(CNCC3(CNC2)OCCO3)O1 | > 200 µM | 174 µM | 
13 | Oc1[nH]c2ccccc2c1N=NC(=S)N1CCCC1 | > 200 µM | 1.55 µM | 
14 | COC(=O)C(/C(=N/N)C(=O)Nc1cccc(O)c1)c1nc2ccccc2[nH]c1=O (configuration not stated) | > 34.7 µM | > 34.7 µM | 
15 | CO[C@H]1/C=C/O[C@@]2(C)Oc3c(C)c(O)c4c(O)c(c(/C=N/N5CCN(C)CC5)c(O)c4c3C2=O)NC(=O)/C(C)=C\C=C\[C@H](C)[C@H](O)[C@@H](C)[C@@H](O)[C@@H](C)[C@H](OC(C)=O)[C@@H]1C | > 151 µM | 93.3 µM | 
16 | CCOC(=O)Cn1c(=O)n(C)c(=O)c2[nH]cnc21 | > 1000 µM | > 1000 µM | 
17 | CC1SC(c2ccccc2)N(Nc2c3ccccc3nc3ccccc23)C1=O (configuration not stated) | > 67.6 µM | > 67.6 µM | 
18 | Clc1cccc2nn3ccnc3n12 | > 955 µM | 490 µM | 
19 | O=C(NCCCCCCCCNC(=O)c1cc(-c2ccccc2)nc2ccccc12)c1cc(-c2ccccc2)nc2ccccc12 | > 200 µM | > 200 µM | 
20 | COc1cc(Nc2cnc3cc(F)c(F)cc3n2)cc(OC)c1 | > 200 µM | > 200 µM | 
21 | O=C(O)c1ccccc1P12(OC(=O)c3ccccc31)OC(=O)c1ccccc12 | > 209 µM | 170 µM | 
22 | Cc1ccc2c(n1)C(N1CCOCC1)=CC(=O)C2=O |  |  | inactive

Row | SMILES | EC50 | IC50 | outcome
23 | CCCCC(NC(=O)C1CCCN1C(=O)OCc1ccccc1)C(=O)OCc1ccccc1 (stereo not drawn) (Cbz-Pro-[Nle]-OBn; configuration not given here) | > 41.7 µM | > 41.7 µM | 
24 | COC(=O)c1cc2/c(=N/O)c3ccccc3sc2o1 | > 200 µM | > 200 µM | 
25 | CCc1ccc(Nc2cc(=O)n(C)c(SCc3ccccc3)n2)cc1 | > 200 µM | > 200 µM | 
26 | CCCc1cc(=O)oc2c3c(c4c(c12)OC(C)(C)C=C4)O[C@@H](C)[C@H](C)[C@H]3O | > 51.3 µM | 17 µM | 
27 | COC1(c2ccccc2)Oc2ccccc2C(=O)C1(O)C[N+](=O)[O-] (configuration not stated) | > 200 µM | 15.5 µM | 
28 | N#Cc1c(-c2ccc(Cl)cc2Cl)nc2[nH][nH]c(=S)n2c1=O | > 100 µM | > 100 µM | 
29 | C=CCC(/C=C\CC)(C(=O)O)C(=O)O | > 661 µM | > 661 µM | 
30 | O=C(NC(=O)c1c(F)cccc1F)Nc1ccc(Br)cn1 | > 200 µM | > 200 µM | 
31 | COc1ccc(-c2nnc(-c3c(C)n(C)n(-c4ccccc4)c3=O)o2)cc1 | > 200 µM | > 200 µM | 
32 | Cc1c2ccccc2nc(CSCCO)[n+]1[O-] | > 200 µM | > 200 µM | 
33 | O=c1cc[nH]c2c1ccc1[nH]ccc(=O)c12 | > 200 µM | > 200 µM | 
34 | S=C1NC2=C(COC/C2=C\c2cccc(Cl)c2)C(c2cccc(Cl)c2)N1 (configuration not stated) |  |  | inactive
35 | CSc1c(C#N)c(=C(C#N)C#N)nc(C)/c1=C(\C)O | > 100 µM | > 100 µM | 
36 | CCOC(=O)/C(=C\c1cccc(C(F)(F)F)c1)P(=O)(OCC)OCC | > 95.5 µM | 5.01 µM | 
37 | COc1cc(N=Nc2ccccc2)cc(/C=N/NC(=O)c2cccnc2)c1O | > 661 µM | 60.3 µM | 
38 | O=C1OCC2=C1C(c1ccc(Cl)cc1)c1cc3c(cc1O2)OCO3 (configuration not stated) | > 200 µM | 3.98 µM | 
39 | O=C(N/N=C/c1cc(S(=O)(=O)O)c2cccnc2c1O)C(=O)N/N=C/c1cc(S(=O)(=O)O)c2cccnc2c1O | > 200 µM | 41.7 µM | 
40 | CCOP(=O)(OCC)O/C(C)=C\C(=O)OC | > 501 µM | > 501 µM | 
41 | COc1ccc(/C=C/C(=O)c2sc(-n3nc(-c4ccccc4)cc3-c3ccccc3)nc2C)cc1OC | > 70.8 µM | 38 µM | 
42 | CCCCOC(=O)/C=C(\Br)C(=O)OCCCC |  |  | inactive
43 | O=C(CCN1CCCCC1)c1cc2cc([N+](=O)[O-])ccc2oc1=O | > 219 µM | 112 µM | 
